Data reported in patent publication US20220096510A1, “METHOD AND PHARMACOLOGICAL COMPOSITION FOR THE PREVENTION OF RECURRENT INFECTIONS CAUSED BY CLOSTRIDIUM DIFFICILE” (UNIVERSIDAD ANDRÉS BELLO, priority 2018, published 2022).

Experiments:
C. difficile [1] = conditions: cited from earlier work; for patients who presented late R-CDI: after 28 days
C. difficile [2] = conditions: 10 mM; cited from earlier work
[3] = tested on: C. difficile strain R20291; experiment: Murine R-CDI model, intraperitoneal nystatin before and during CDI with oral vancomycin (Example 4)
C. difficile toxin TcdB = conditions: patients with CDI; cited from earlier work
C. difficile spores = type: in vivo, C57BL/6 mice; conditions: day 2; nystatin 8,500 IU/kg oral from day -1
C. difficile [4] = tested on: C. difficile
Text: Mice were infected and dosed with an oral solution comprising a combination of nystatin and vancomycin starting from day 3 after infection (time of manifestation of the clinical symptoms).
In this sense, we studied the effect of a formulation comprising nystatin together with vancomycin administered from day 3.

C. difficile [5] = conditions: used after vancomycin; cited from earlier work
T84 cells = experiment: Cell viability by the trypan blue and MTT methods, T84; type: cell-based; conditions: results not shown
[6] = tested on: C. difficile R20291 spores in Caco-2 cells; experiment: Internalized (taurocholate- and ethanol-resistant) spores in infected Caco-2 cells by the seeding method; type: cell-based; conditions: 30 μM nystatin before and during infection; then 0.1% taurocholate 1 h and 70% ethanol
Caco-2 cells = experiment: Cell viability by the trypan blue and MTT methods, Caco-2; type: cell-based; conditions: results not shown

## CCc1c(Cl)c(O)c(Cl)c(O)c1C(=O)O[C@H]1[C@H](O)[C@H](OC)[C@H](OC/C2=C\C=C\C[C@H](O)/C(C)=C/[C@H](CC)[C@@H](O[C@@H]3OC(C)(C)[C@@H](OC(=O)C(C)C)[C@H](O)[C@@H]3O)/C(C)=C/C(C)=C/C[C@@H]([C@@H](C)O)OC2=O)O[C@@H]1C [fidaxomicin]
C. difficile [1]
  patients who presented late R-CDI: 19.7%
  patients who presented early recurrences: 8%

## N[C@@H](CS)C(=O)O [cysteine]
C. difficile [2]
  toxin production in vitro: reduces toxin production

## CN[C@H](CC(C)C)C(=O)N[C@H]1C(=O)N[C@@H](CC(N)=O)C(=O)N[C@H]2C(=O)N[C@H]3C(=O)N[C@H](C(=O)N[C@H](C(=O)O)c4cc(O)cc(O)c4-c4cc3ccc4O)[C@H](O)c3ccc(c(Cl)c3)Oc3cc2cc(c3O[C@@H]2O[C@H](CO)[C@@H](O)[C@H](O)[C@H]2O[C@H]2C[C@](C)(N)[C@H](O)[C@H](C)O2)Oc2ccc(cc2Cl)[C@H]1O [vancomycin]
[3]; 5 days after finishing vancomycin 50 mg/kg, 7 days
  mice presenting recurrence: 100%
C. difficile [1]
  patients who presented late R-CDI: 35.5%
  patients who presented early recurrences: 27%
C. difficile toxin TcdB
  R-CDI rates: 27%
C. difficile spores
  levels of spores in stools: 3.8 logarithmic units
C. difficile [4]; after discontinuing treatment on day 8, nystatin 4,250 and 17,000 IU/kg
  weight loss on day 11, the day of recurrence: suffered a weight loss
C. difficile [4]; vancomycin 50 mg/kg alone, 5 days from day 3
  mice presenting recurrence: 75%

## CO[C@H]1/C=C/O[C@@]2(C)Oc3c(C)c(O)c4c(O)c(c5c(nc6cc(C)ccn65)c4c3C2=O)NC(=O)/C(C)=C\C=C\[C@H](C)[C@H](O)[C@@H](C)[C@@H](O)[C@@H](C)[C@H](OC(C)=O)[C@@H]1C [rifaximin]
C. difficile [5]
  efficiency rate: 64%

## C[C@@H]1[C@H](O)[C@@H](C)/C=C/C=C/CC/C=C/C=C/C=C/C=C/C(O[C@H]2O[C@H](C)[C@@H](O)[C@H](N)[C@@H]2O)CC2O[C@](O)(CC(O)C(O)CCC(O)CC(O)CC(O)CC(=O)O[C@H]1C)CC(O)C2C(=O)O (stereo partly shown) [nystatin]
T84 cells
  cell viability: no differences
[3]; nystatin 12,000 IU/kg I.P. with vancomycin 50 mg/kg oral
  weight increase on day 11 in respect of day 0: 6%
[3]; nystatin 12,000 IU/kg I.P. with vancomycin 50 mg/kg oral, versus vancomycin alone
  weight variation versus control group: no significant weight variations
[6]
  amount of CFU counted (ethanol-resistant spores): significant decrease
Caco-2 cells
  cell viability: no differences
